Measured values as given in patent publication US7423181B2, “Aminoalkoxy-functional chalcones” (Lica Pharmaceuticals A/S, priority 2002, dated 2008).
Converted amounts (≈) assume the structure as drawn. Like-named read-outs stand apart in the source and are kept apart here.

Assays:
[1] = system: Enterococcus faecium #17501 (vancomycin-resistant clinical isolate); assay: MIC determination in broth microdilution assay
[2] = system: Enterococcus faecalis ATCC29212; assay: MIC determination in broth microdilution assay
[3] = system: panel of 10 different non-fastidious bacteria; assay: Screening against panel of non-fastidious bacteria; settings: Gram-positive pathogens
[4] = system: Staphylococcus aureus ATCC29213; assay: MIC determination in broth microdilution assay
[5] = system: Eschericia coli ATCC25922; assay: MIC determination in broth microdilution assay; settings: for MIC: G: Eschericia coli ATCC25922
[6] = system: Streptococcus pneumoniae #998 (clinical isolate); assay: MIC determination in broth microdilution assay
[7] = system: Staphylococcus aureus ATCC33591(resistant to methicillin); assay: MIC determination in broth microdilution assay
[8] = system: Eschericia coli ESS; assay: MIC determination in broth microdilution assay
[9] = system: L. major promastigotes; assay: Leishmania promastigote assay; settings: L. major
[10] = Determination of metabolic stability (liver microsomes); format: in vitro ADME; settings: rat liver microsomes, 20 μM, 15 min
Method: Determination of Metabolic Stability
Incubations were performed with Wistar rat liver microsomes (0.25 mg/ml) in 2% sodium bicarbonate solution. NADP (0.13 mg/ml), glucose-6-phosphate (0.63 mg/ml) and glucose-6-phosphate dehydrogenase (0.38 units/ml) were used as NADPH generation system and UDPGA (0.48 mg/ml) was added to include the phase II reaction, glucuronic acid conjugation, in the assay. After 5 minutes of pre-incubation the reaction was started by addition of the test article to give a final concentration of 20 μM. Samples were incubated for 15 min at 37° C. and the reactions were terminated by addition of equal volumes of acetonitrile. Blank incubations were performed at the same concentration but without addition of microsomes. Both blank and microsome-containing samples were made in replicats of three. Prior to analysis samples were centrifuged for 10 min. at 3500 rpm,HPLC system:
Initial conditions were 40% mobile phase A (acetonitrile) and 60% mobile phase B (10 mM ammonium acetate pH 9.5). During the first 20 minutes, the mobile phase was changed via a linear gradient to 90% A and 10% B. This was followed by a 5 minutes linear gradient to initial conditions, which were maintained for 5 min. The flow rate was 0.20 m)/min and injection volume 10 μl.

[11] = system: Plasmodium falciparum 3D7; assay: Plasmodium falciparum assay; format: cell-based; settings: Plasmodium falciparum 3D7 (Table 2); read-out: IC50
[12] = E: Enterococcus faecium #17501 (vancomycin-resistant)
[13] = D: Enterococcus faecalis ATCC29212
[14] = A: Staphylococcus aureus ATCC29213
[15] = F: Streptococcus pneumoniae #998
[16] = B: Staphylococcus aureus ATCC33591(resistant to methicillin)

SMILES	MIC [1, 12]	MIC [2, 13]	MIC [4, 14]	MIC [5]	MIC [6, 15]	MIC [7, 16]	MIC ([8]; H: Eschericia coli ESS)	other results
COc1ccc(C(=O)/C=C/c2cc(C(C)(C)C)ccc2OCCN(C)C)c(F)c1 [Compound C004, (E)-3-[5-tert-Butyl-2-(2-dimethylamino-ethoxy)-phenyl]-1-(2-fluoro-4-methoxy-phenyl)-propenone]	18.8 µM (≈ 7.51 µg/mL)	18.8 µM (≈ 7.51 µg/mL)	9.4 µM (≈ 3.76 µg/mL)	75.0 µM (≈ 30 µg/mL)	18.8 µM (≈ 7.51 µg/mL)	9.4 µM (≈ 3.76 µg/mL)	9.4 µM (≈ 3.76 µg/mL)	potency against Gram-positive pathogens in comparison with Licochalcone A [3]: increased potency
COc1ccc(C(=O)/C=C/c2cc(-c3ccccc3)ccc2OCCN(C)C)c(F)c1 [Compound C011, (E)-3-[4-(2-Dimethylamino-ethoxy)-biphenyl-3-yl]-1-(2-fluoro-4-methoxy-phenyl)-propenone]								IC50 [9]: 100 nM
COc1ccc(C(=O)/C=C/c2cc(-c3cc(C)cc(C)c3)ccc2OCCN(C)C)c(F)c1 [Compound C024, (E)-3-[4-(2-Dimethylamino-ethoxy)-3′,5′-dimethyl-biphenyl-3-yl]-1-(2-fluoro-4-methoxy-phenyl)-propenone]								Metabolic turn-over in vitro [10]: 3%; IC50 [9]: 40 nM
Cc1ccccc1-c1ccc(OCCN(C)C)c(/C=C/C(=O)c2ccccc2CN2CCN(C)CC2)c1 [Compound C032, (E)-3-[4-(2-Dimethylamino-ethoxy)-2′-methyl-biphenyl-3-yl]-1-[2-(4-methyl-piperazin-1-ylmethyl)-phenyl]-propenone]								IC50 [11]: 500 nM; IC50 [9]: 700 nM
CCCc1cc(/C=C/C(=O)c2ccc(OC)cc2F)c(OCCN(C)C)cc1O [Compound C039, (E)-3-[2-(2-Dimethylamino-ethoxy)-4-hydroxy-5-propyl-phenyl]-1-(2-fluoro-4-methoxy-phenyl)-propenone]	18.8 µM (≈ 7.55 µg/mL)	18.8 µM (≈ 7.55 µg/mL)	9.4 µM (≈ 3.77 µg/mL)	75.0 µM (≈ 30.1 µg/mL)	18.8 µM (≈ 7.55 µg/mL)	18.8 µM (≈ 7.55 µg/mL)	9.4 µM (≈ 3.77 µg/mL)	
Cc1cc(C)cc(-c2ccc(OCCN(C)C)c(/C=C/C(=O)c3ccccc3OC(C)C)c2)c1 [Compound C067, (E)-3-[4-(2-Dimethylamino-ethoxy)-3′,5′-dimethyl-biphenyl-3-yl]-1(2-isopropoxy-phenyl)-propenone]	4.7 µM (≈ 2.15 µg/mL)	4.7 µM (≈ 2.15 µg/mL)	4.7 µM (≈ 2.15 µg/mL)		18.8 µM (≈ 8.6 µg/mL)	4.7 µM (≈ 2.15 µg/mL)	18.8 µM (≈ 8.6 µg/mL)	
CN(C)CCCOc1cccc(/C=C/C(=O)c2ccccc2CN(C)C)c1 [Compound C071, (E)-1-(2-Dimethylaminomethyl-phenyl)-3-[3-(3-dimethylamino-propoxy)-phenyl]-propenone]								Metabolic turn-over in vitro [10]: 3%
Cc1cc(C)cc(-c2ccc(OCCN(C)C)c(CCC(=O)c3ccc(F)cc3)c2)c1 [Compound C072, 3-[4-(2-Dimethylamino-ethoxy)-3′,5′-dimethyl-biphenyl-3-yl]-1-(4-fluoro-phenyl)-propan-1-one]								MIC ([1]; Enterococcus faecium): 18.8 µM (≈ 7.89 µg/mL); MIC ([2]; Enterococcus faecalis, ATCC29212): 18.8 µM (≈ 7.89 µg/mL); MIC ([4]; Staphylococcus aureus, ATCC29213): 9.4 µM (≈ 3.94 µg/mL); MIC ([6]; Streptococcus pneumoniae): 37.5 µM (≈ 15.7 µg/mL); MIC ([7]; Staphylococcus aureus, ATCC33591): 18.8 µM (≈ 7.89 µg/mL); MIC [8]: 9.4 µM (≈ 3.94 µg/mL)
Cc1cc(C)cc(-c2ccc(OCCN(C)C)c(/C=C/C(=O)c3cccc(O)c3)c2)c1 [Compound C085, (E)-3-[4-(2-Dimethylamino-ethoxy)-3′,5′-dimethyl-biphenyl-3-yl]-1-(3-hydroxy-phenyl)-propenone]	4.7 µM (≈ 1.95 µg/mL)	4.7 µM (≈ 1.95 µg/mL)	4.7 µM (≈ 1.95 µg/mL)		75 µM (≈ 31.2 µg/mL)	4.7 µM (≈ 1.95 µg/mL)	4.7 µM (≈ 1.95 µg/mL)	
Cc1cc(C)cc(-c2ccc(OCCN(C)C)c(/C=C/C(=O)c3cccc(CN(C)C)c3)c2)c1 [Compound C089, (E)-3-[4-(2-Dimethylamino-ethoxy)-3′,5′-dimethyl-biphenyl-3-yl]-1-(3-dimethylaminomethyl-phenyl)-propenone]	9.4 µM (≈ 4.29 µg/mL)	9.4 µM (≈ 4.29 µg/mL)	9.4 µM (≈ 4.29 µg/mL)	37.5 µM (≈ 17.1 µg/mL)	9.7 µM (≈ 4.43 µg/mL)	9.4 µM (≈ 4.29 µg/mL)	4.7 µM (≈ 2.15 µg/mL)	Metabolic turn-over in vitro [10]: 9%
COc1ccc(C(=O)/C=C/c2cc(-c3cc(C)cc(C)c3)ccc2OCCN(C)C)cc1CN(C)C [Compound C090, (E)-3-[4-(2-Dimethylamino-ethoxy)-3′,5′-dimethyl-biphenyl-3-yl]-1-(3-dimethylaminomethyl-4-methoxy-phenyl)-propenone]								IC50 [11]: 500 nM
COc1ccc(C(=O)/C=C/c2cc(-c3cc(C)cc(C)c3)ccc2OCCN(C)C)c(CN(C)C)c1 [Compound C092, (E)-3-[4-(2-Dimethylamino-ethoxy)-3′,5′-dimethyl-biphenyl-3-yl]-1-(2-dimethylaminomethyl-4-methoxy-phenyl)-propenone]	4.7 µM (≈ 2.29 µg/mL)	4.7 µM (≈ 2.29 µg/mL)	4.7 µM (≈ 2.29 µg/mL)	75 µM (≈ 36.5 µg/mL)	4.7 µM (≈ 2.29 µg/mL)	9.4 µM (≈ 4.57 µg/mL)	4.7 µM (≈ 2.29 µg/mL)	Metabolic turn-over in vitro [10]: 4%
Cc1cc(C)cc(-c2ccc(OCCN(C)C)c(/C=C/C(=O)c3ccccc3N)c2)c1 [Compound C093, (E)-1-(2-Amino-phenyl)-3-[4-(2-dimethylamino-ethoxy)-3′,5′-dimethyl-biphenyl-3-yl]-propenone]	4.7 µM (≈ 1.95 µg/mL)	9.4 µM (≈ 3.9 µg/mL)	4.7 µM (≈ 1.95 µg/mL)		18.8 µM (≈ 7.79 µg/mL)	4.7 µM (≈ 1.95 µg/mL)	4.7 µM (≈ 1.95 µg/mL)	
Cc1cc(C)cc(-c2ccc(OCCN(C)C)c(/C=C/C(=O)c3cccc(N4CCN(C)CC4)c3)c2)c1 [Compound C103, (E)-3-[4-(2-Dimethylamino-ethoxy)-3′,5′-dimethyl-biphenyl-3-yl]-1-[3-(4-methyl-piperazin-1-yl)-phenyl]-propenone]	9.4 µM (≈ 4.68 µg/mL)	9.4 µM (≈ 4.68 µg/mL)	4.7 µM (≈ 2.34 µg/mL)	18.8 µM (≈ 9.36 µg/mL)		4.7 µM (≈ 2.34 µg/mL)	4.7 µM (≈ 2.34 µg/mL)	activity against E coli ATCC25922 [5]: high activity; activity against ESS strain of E.coli [8]: high activity
Cc1cc(C)cc(-c2ccc(OCCN(C)C)c(/C=C/C(=O)c3ccccc3OCCCN(C)C)c2)c1 [Compound C104, (E)-3-[4-(2-Dimethylamino-ethoxy)-3′,5′-dimethyl-biphenyl-3-yl]-1-[2-(3-dimethylamino-propoxy)-phenyl]-propenone]	9.4 µM (≈ 4.71 µg/mL)	9.4 µM (≈ 4.71 µg/mL)	9.4 µM (≈ 4.71 µg/mL)	18.8 µM (≈ 9.41 µg/mL)	9.4 µM (≈ 4.71 µg/mL)	18.8 µM (≈ 9.41 µg/mL)	9.4 µM (≈ 4.71 µg/mL)	
CN(C)CCOc1ccc(-c2ccccc2O)cc1/C=C/C(=O)c1ccccc1CN(C)C [Compound C131, (E)-3-[4-(2-Dimethylamino-ethoxy)-2′-hydroxy-biphenyl-3-yl]-1-(2-dimethylaminomethyl-phenyl)-propenone]								IC50 [11]: 300 nM
Cc1cc(C)cc(-c2ccc(OCCN(C)C)c(/C=C/C(=O)c3ccc(O)c(F)c3)c2)c1 [Compound C140, (E)-3-[4-(2-Dimethylamino-ethoxy)-3′,5′-dimethyl-biphenyl-3-yl]-1-(3-fluoro-4-hydroxy-phenyl)-propenone]								IC50 [9]: 200 nM
Cc1cc(C)cc(-c2ccc(OCCN(C)C)c(/C=C/C(=O)c3ccc(O)cc3F)c2)c1 [Compound C156, (E)-3-[4-(2-Dimethylamino-ethoxy)-3′,5′-dimethyl-biphenyl-3-yl]-1-(2-fluoro-4-hydroxy-phenyl)-propenone]								IC50 [11]: 100 nM
Cc1cc(C)cc(-c2ccc(OCCN(C)C)c(/C=C/C(=O)c3ccc(OCCN(C)C)cc3F)c2)c1 [Compound C157, (E)-3-[4-(2-Dimethylamino-ethoxy)-3′,5′-dimethyl-biphenyl-3-yl]-1-[4-(2-dimethylamino-ethoxy)-2-fluoro-phenyl]-propenone]	9.4 µM (≈ 4.74 µg/mL)	9.4 µM (≈ 4.74 µg/mL)	4.7 µM (≈ 2.37 µg/mL)	18.8 µM (≈ 9.49 µg/mL)	9.4 µM (≈ 4.74 µg/mL)	9.4 µM (≈ 4.74 µg/mL)	4.7 µM (≈ 2.37 µg/mL)	
